Experimental data as given in ChEMBL document CHEMBL3875185, “Structure-anticonvulsant activity studies in the group of (E)-N-cinnamoyl aminoalkanols derivatives monosubstituted in phenyl ring with 4-Cl, 4-CH3 or 2-CH3” (Bioorg Med Chem, 2017).
Activity calls are given as the source filed them. The calls are words filed in the database; no cut-off is given here.

Key:
[1] = target: Nociceptin receptor (Homo sapiens) (UniProt P41146); experiment: Displacement of [3H]nociceptin from human recombinant NOP receptor expressed in HEK293 cells at 100 uM measured after 60 mins by scintillation counting method relative to control; format: cell-based
Rattus norvegicus [2] = experiment: Anticonvulsant activity in ip dosed pentylenetetrazole induced seizure Sprague-Dawley rat model assessed as no observable episode of clonic convulsion of at least 5 secs by measuring time to peak effect; format: functional
Rattus norvegicus [3] = organism: Rattus norvegicus; experiment: Displacement of [3H]batrachotoxinin from rat cerebral cortex sodium channel site 2 at 100 uM measured after 60 mins by scintillation counting method relative to control
[4] = target: Adrenergic receptor alpha-1 (Rattus norvegicus) (UniProt P15823+P23944+P43140); experiment: Displacement of [3H]prazosin from rat cerebral cortex alpha-1 adrenergic receptor at 100 uM measured after 60 mins by scintillation counting method relative to control
Mus musculus [5] = experiment: Anticonvulsant activity in ip dosed 6-Hz induced seizure mouse model assessed as restoration of normal activity within 10 secs from stimulation at 44 mA; format: functional
Rattus norvegicus [6] = organism: Rattus norvegicus; experiment: Displacement of [125I]apamin from rat cerebral cortex SKCa channel at 100 uM measured after 60 mins by scintillation counting method relative to control
[7] = target: T1, C-X-C chemokine receptor type 2 (Homo sapiens) (UniProt P25025); experiment: Displacement of [125I]IL-8 from human recombinant CXCR2 expressed in HEK293 cells at 100 uM measured after 60 mins by scintillation counting method relative to control; format: cell-based
T1 sequence (whole entry): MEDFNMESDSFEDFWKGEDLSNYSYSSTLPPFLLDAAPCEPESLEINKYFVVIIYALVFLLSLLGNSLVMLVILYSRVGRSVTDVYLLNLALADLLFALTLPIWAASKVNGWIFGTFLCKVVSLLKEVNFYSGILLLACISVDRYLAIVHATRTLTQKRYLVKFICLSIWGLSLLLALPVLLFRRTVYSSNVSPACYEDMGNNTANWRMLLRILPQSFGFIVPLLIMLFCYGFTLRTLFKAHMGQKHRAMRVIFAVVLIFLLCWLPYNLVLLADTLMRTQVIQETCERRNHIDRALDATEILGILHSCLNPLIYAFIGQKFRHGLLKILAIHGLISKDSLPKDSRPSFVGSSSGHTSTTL

CHO = experiment: Displacement of [3H]methyl-spiperone from human recombinant dopamine D4.4 receptor expressed in CHO cells at 100 uM measured after 60 mins by scintillation counting method relative to control; format: cell-based
[8] = target: T2, Adenosine receptor A3 (Homo sapiens) (UniProt P0DMS8); experiment: Displacement of [125I]AB-MECA from human recombinant adenosine receptor A3 expressed in HEK293 cells at 100 uM measured after 120 mins by scintillation counting method relative to control; format: cell-based
T2 sequence (whole entry): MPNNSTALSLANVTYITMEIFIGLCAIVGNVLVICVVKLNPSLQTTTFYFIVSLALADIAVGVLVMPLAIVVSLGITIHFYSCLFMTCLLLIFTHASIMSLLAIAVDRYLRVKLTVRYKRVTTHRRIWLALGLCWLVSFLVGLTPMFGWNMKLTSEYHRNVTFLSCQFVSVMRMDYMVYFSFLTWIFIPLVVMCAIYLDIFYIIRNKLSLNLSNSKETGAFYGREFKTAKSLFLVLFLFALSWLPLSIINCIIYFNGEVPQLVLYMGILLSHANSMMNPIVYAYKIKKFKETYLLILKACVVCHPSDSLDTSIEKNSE

[9] = target: Delta-type opioid receptor (Homo sapiens) (UniProt P41143); experiment: Displacement of [3H]DADLE from human recombinant delta opioid receptor expressed in CHO cells at 100 uM measured after 120 mins by scintillation counting method relative to control; format: cell-based
[10] = target: Translocator protein (Rattus norvegicus) (UniProt P16257); experiment: Displacement of [3H]PK 11195 from rat heart peripheral-type benzodiazepine receptor at 100 uM measured after 15 mins by scintillation counting method relative to control
Rattus norvegicus [11] = experiment: Neurotoxicity in Sprague-Dawley rat assessed as behavioral change at 30 mg/kg, po measured at […] post dose; format: toxicity, organism-based; conditions: in vivo
Mus musculus [12] = experiment: Neurotoxicity in ip dosed mouse assessed as induction of motor impairment by measuring time to peak effect by rotarod method; format: toxicity, organism-based; conditions: in vivo
[13] = Protection index, ratio of TD50 for neurotoxicity in ip dosed mouse to ED50 for ip dosed pentylenetetrazole induced seizure mouse model; format: toxicity, organism-based; conditions: in vivo, read-out: Ratio TD50/ED50
[14] = target: Mu-type opioid receptor (Homo sapiens) (UniProt P35372); experiment: Displacement of [3H]DAMGO from human recombinant mu-opioid receptor expressed in HEK293 cells at 100 uM measured after 120 mins by scintillation counting method relative to control; format: cell-based
[15] = target: 5-hydroxytryptamine receptor 7 (Homo sapiens) (UniProt P34969); experiment: Displacement of [3H]LSD from human recombinant 5HT7 receptor expressed in CHO cells at 100 uM measured after 120 mins by scintillation counting method relative to control; format: cell-based
[16] = target: Neuropeptide Y receptor type 2 (Homo sapiens) (UniProt P49146); experiment: Displacement of [125I]peptide YY from Y2 in human KAN-TS cells receptor at 100 uM measured after 60 mins by scintillation counting method relative to control; format: cell-based
Mus musculus [17] = experiment: Anticonvulsant activity in maximal electroshock induced seizure mouse model assessed as suppression in hindlimb tonic extension at 300 mg/kg, ip measured at 0.5 hrs post dose; format: functional, organism-based
Jurkat = experiment: Displacement of [3H]DTG from sigma receptor in human Jurkat cells at 100 uM measured after 120 mins by scintillation counting method relative to control; format: cell-based
[18] = target: 5-hydroxytryptamine receptor 2A (Homo sapiens) (UniProt P28223); experiment: Displacement of [3H]ketanserin from human recombinant 5HT2A receptor expressed in HEK293 cells at 100 uM measured after 60 mins by scintillation counting method relative to control; format: cell-based
Mus musculus [19] = experiment: Neurotoxicity in mouse assessed as induction of motor impairment at 30 mg/kg, ip measured at 0.5 hrs post dose by rotarod method; format: toxicity, organism-based; conditions: in vivo
Rattus norvegicus [20] = experiment: Anticonvulsant activity in po dosed maximal electroshock induced seizure Sprague-Dawley rat model assessed as suppression in hindlimb tonic extension; format: functional
Rattus norvegicus [21] = experiment: Anticonvulsant activity in ip dosed maximal electroshock induced seizure Sprague-Dawley rat model assessed as suppression in hindlimb tonic extension by measuring time to peak effect; format: functional
Mus musculus [22] = experiment: Neurotoxicity in mouse assessed as induction of motor impairment at 100 mg/kg, ip measured at 4 hrs post dose by rotarod method; format: toxicity, organism-based; conditions: in vivo
Mus musculus [23] = experiment: Anticonvulsant activity in po dosed 6-Hz induced seizure mouse model assessed as restoration of normal activity within 10 secs from stimulation by measuring time to peak effect at 44 mA; format: functional
[24] = target: Neurotensin receptor type 1 (Homo sapiens) (UniProt P30989); experiment: Displacement of [125I]Tyr3-neurotensin from human recombinant NTS1 receptor expressed in CHO cells at 100 uM measured after 60 mins by scintillation counting method relative to control; format: cell-based
Mus musculus [25] = experiment: Anticonvulsant activity in 6-Hz induced seizure mouse model assessed as restoration of normal activity within 10 secs from stimulation at 100 mg/kg, ip at 32 mA measured at 1 hr post dose; format: functional, organism-based

Chain of Nociceptin receptor (Homo sapiens) (P41146 whole entry): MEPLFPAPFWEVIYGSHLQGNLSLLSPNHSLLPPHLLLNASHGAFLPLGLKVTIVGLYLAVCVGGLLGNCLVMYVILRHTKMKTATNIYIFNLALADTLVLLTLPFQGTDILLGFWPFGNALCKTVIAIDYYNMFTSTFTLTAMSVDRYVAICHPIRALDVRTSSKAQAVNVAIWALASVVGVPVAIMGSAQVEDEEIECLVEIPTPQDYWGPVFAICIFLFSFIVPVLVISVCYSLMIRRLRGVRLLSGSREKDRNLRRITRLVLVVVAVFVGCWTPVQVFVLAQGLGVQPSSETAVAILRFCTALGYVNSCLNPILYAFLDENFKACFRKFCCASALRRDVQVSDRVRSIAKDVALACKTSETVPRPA
Chain of 5-hydroxytryptamine receptor 7 (Homo sapiens) (P34969 whole entry): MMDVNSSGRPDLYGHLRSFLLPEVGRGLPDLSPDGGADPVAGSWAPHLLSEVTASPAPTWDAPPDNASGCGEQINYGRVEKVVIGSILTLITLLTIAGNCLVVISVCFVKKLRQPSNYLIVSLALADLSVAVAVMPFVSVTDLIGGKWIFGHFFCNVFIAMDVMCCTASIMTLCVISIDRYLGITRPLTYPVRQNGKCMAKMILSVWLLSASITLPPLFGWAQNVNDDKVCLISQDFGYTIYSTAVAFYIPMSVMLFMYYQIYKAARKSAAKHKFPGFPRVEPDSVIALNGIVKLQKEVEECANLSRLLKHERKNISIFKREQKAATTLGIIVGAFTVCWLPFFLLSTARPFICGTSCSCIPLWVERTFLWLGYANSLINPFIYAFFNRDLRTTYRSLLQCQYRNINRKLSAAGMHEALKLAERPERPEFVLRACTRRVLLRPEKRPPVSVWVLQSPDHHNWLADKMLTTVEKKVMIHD
Chain of Delta-type opioid receptor (Homo sapiens) (P41143 whole entry): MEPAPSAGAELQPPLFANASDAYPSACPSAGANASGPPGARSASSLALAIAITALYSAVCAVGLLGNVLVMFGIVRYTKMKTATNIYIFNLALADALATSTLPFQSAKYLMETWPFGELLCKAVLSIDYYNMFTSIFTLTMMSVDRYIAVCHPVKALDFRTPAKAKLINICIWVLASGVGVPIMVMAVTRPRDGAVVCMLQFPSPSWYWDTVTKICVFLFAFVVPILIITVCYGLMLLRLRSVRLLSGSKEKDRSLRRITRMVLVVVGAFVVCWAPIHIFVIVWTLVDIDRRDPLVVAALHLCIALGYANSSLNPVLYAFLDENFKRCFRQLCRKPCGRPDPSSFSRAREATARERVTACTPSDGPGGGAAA
Chain of 5-hydroxytryptamine receptor 2A (Homo sapiens) (P28223 whole entry): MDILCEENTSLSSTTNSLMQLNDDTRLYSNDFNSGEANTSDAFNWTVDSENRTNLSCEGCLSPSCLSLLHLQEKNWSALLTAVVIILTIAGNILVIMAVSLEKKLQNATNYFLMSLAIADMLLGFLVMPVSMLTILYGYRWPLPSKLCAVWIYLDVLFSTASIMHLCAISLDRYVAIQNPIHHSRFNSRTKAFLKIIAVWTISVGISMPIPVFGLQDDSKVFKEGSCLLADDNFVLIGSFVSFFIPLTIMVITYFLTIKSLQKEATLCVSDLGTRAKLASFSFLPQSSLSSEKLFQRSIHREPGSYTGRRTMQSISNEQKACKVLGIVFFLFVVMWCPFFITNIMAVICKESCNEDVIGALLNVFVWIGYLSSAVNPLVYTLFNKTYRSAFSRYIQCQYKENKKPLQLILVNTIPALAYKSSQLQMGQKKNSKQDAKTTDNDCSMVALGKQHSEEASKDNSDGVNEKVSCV
Chain of Mu-type opioid receptor (Homo sapiens) (P35372 whole entry): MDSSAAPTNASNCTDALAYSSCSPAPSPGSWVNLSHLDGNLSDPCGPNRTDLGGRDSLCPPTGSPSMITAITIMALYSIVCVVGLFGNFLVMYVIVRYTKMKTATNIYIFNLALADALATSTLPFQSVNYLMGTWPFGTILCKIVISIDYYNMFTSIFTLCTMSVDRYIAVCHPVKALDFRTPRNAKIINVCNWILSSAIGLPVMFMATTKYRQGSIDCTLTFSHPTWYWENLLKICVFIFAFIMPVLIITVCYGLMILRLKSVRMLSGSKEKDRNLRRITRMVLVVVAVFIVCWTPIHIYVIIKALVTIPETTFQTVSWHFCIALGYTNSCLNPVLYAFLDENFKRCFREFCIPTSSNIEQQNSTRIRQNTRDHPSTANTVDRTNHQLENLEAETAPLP
Chain of Translocator protein (Rattus norvegicus) (P16257 whole entry, looked up): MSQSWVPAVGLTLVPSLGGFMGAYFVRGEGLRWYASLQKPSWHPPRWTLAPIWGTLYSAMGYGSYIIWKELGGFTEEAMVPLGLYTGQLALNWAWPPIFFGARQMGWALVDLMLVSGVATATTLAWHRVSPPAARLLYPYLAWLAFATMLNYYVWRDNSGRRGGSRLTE
Chain of Neurotensin receptor type 1 (Homo sapiens) (P30989 whole entry): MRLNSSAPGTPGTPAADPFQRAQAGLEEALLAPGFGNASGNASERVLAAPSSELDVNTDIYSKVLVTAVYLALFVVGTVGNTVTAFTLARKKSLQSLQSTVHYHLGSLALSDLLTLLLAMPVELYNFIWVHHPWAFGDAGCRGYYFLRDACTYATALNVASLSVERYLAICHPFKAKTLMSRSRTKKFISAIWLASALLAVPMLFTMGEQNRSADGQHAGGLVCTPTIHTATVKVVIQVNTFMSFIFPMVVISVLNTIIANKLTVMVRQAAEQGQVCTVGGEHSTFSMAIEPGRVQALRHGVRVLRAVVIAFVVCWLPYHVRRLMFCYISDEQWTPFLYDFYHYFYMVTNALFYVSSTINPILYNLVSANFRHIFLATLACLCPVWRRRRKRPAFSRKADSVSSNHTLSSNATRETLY
Chain of Neuropeptide Y receptor type 2 (Homo sapiens) (P49146 whole entry): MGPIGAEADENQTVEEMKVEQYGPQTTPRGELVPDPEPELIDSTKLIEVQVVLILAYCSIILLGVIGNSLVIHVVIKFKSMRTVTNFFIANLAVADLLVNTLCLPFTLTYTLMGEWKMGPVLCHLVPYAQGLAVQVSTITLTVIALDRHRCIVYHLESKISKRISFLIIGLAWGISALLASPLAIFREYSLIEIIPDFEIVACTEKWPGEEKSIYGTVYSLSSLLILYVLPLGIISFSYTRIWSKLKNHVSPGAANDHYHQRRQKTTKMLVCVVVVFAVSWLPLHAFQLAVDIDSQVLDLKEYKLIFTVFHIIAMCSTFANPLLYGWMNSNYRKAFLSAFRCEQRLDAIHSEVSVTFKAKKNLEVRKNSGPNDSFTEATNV

Row | Structure (SMILES) | inhibition [1] [%] | Time (Rattus norvegicus [2]) [h] | inhibition (Rattus norvegicus [3]) [%] | inhibition [4] [%] | ED50 (Mus musculus [5]) [mg/kg] | inhibition (Rattus norvegicus [6]) [%] | inhibition [7] [%] | inhibition (CHO) [%] | inhibition [8] [%] | inhibition [9] [%] | inhibition [10] [%] | Activity (Rattus norvegicus [11]) | Time (Mus musculus [12]) [h] | selectivity ratio [13] | inhibition [14] [%] | inhibition [15] [%] | Activity (Mus musculus [17]) | inhibition (Jurkat) [%] | inhibition [18] [%] | Activity (Mus musculus [19]) | other results
1 | CCC(CO)NC(=O)/C=C/c1ccc(Cl)cc1 (configuration not stated) | -4.4 | 0.5 | 28.4 | 9.9 | 92.9 | 2.3 | 27.1 | 30.6 | 52.5 | 6 | 53 | Non-Toxic | 0.25 | 2.18 | 23.3 | 16.2 | Active | 25.4 | 19.3 | Non-Toxic | inhibition [16]: 4.3%; ED50 (Rattus norvegicus [20]): 46.8 mg/kg; Time (Rattus norvegicus [21]): 0.5 h; Activity (Mus musculus [22]): Non-Toxic
2 | CC(O)CNC(=O)/C=C/c1ccc(Cl)cc1 (configuration not stated) | 1.7 | 0.5 | 10.2 | 17.3 | 51.3 | -2.5 | 27 | 28.2 | 29.9 | 3.2 | 8.1 | Non-Toxic | 0.25 | 1.76 | 11.3 | 43.5 | Active | 22.9 | 12.2 | Non-Toxic | Time (Mus musculus [23]): 1 h; inhibition [24]: -2.6%; inhibition [16]: 14.1%; Activity (Mus musculus [25]): Active; ED50 (Rattus norvegicus [20]): 77.3 mg/kg; Time (Rattus norvegicus [21]): 0.5 h; Activity (Mus musculus [22]): Non-Toxic
3 | Cc1ccccc1/C=C/C(=O)N[C@@H](C)CO | 2.2 | 0.25 | -2.3 | 11.5 | 42.3 | -5.8 | 21.9 | 23.2 | 17.1 | 3 | 75.8 | Non-Toxic | 0.5 | 2.57 | 0.4 | 26.6 | Active | -3.5 | 10.3 | Non-Toxic | Time (Mus musculus [23]): 0.5 h; inhibition [24]: -4.6%; Activity (Mus musculus [25]): Active; ED50 (Rattus norvegicus [20]): 25.8 mg/kg; Time (Rattus norvegicus [21]): 0.25 h; Activity (Mus musculus [22]): Non-Toxic
